Test system: MV-4-11 cells
Assay: Gene expression microarray analysis (Affymetrix PrimeView) and GSEA
Type: cell-based, human
Parameters: RFU PODN (11730768_x_at) / Fold change /veh PODN (11730768_x_at) / RFU LINC00158 (11744669_a_at) / Fold change /veh LINC00158 (11744669_a_at) / RFU DUSP10 (11751237_a_at) / Fold change /veh DUSP10 (11751237_a_at) / RFU ID3 (11757404_x_at) / Fold change /veh ID3 (11757404_x_at) / RFU PLEKHG5 (11737974_s_at) / Fold change /veh PLEKHG5 (11737974_s_at) / RFU LRRC4B (11730491_at) / Fold change /veh LRRC4B (11730491_at) / RFU GIMAP4 (11747438_a_at) / Fold change /veh GIMAP4 (11747438_a_at) / RFU KRT8 (11758183_x_at) / Fold change /veh KRT8 (11758183_x_at) / RFU CNN1 (11734310_a_at) / Fold change /veh CNN1 (11734310_a_at) / RFU VPS37D (11726825_at) / Fold change /veh VPS37D (11726825_at) / RFU C10orf10 (11716522_x_at) / Fold change /veh C10orf10 (11716522_x_at) / RFU KIR2DL2 /// KIR2DL4 /// KIR2DL5A /// KIR2DL5B /// KIR2DS1 /// KIR2DS2 /// KIR2DS3 /// KIR2DS4 /// KIR3DL3 /// KIR3DL3 /// KIR3DS1 (11738374_at) / Fold change /veh KIR2DL2 /// KIR2DL4 /// KIR2DL5A /// KIR2DL5B /// KIR2DS1 /// KIR2DS2 /// KIR2DS3 /// KIR2DS4 /// KIR3DL3 /// KIR3DL3 /// KIR3DS1 (11738374_at) / RFU C1QL1 (11718748_at) / Fold change /veh C1QL1 (11718748_at) / RFU TMPRSS4 (11747572_a_at) / Fold change /veh TMPRSS4 (11747572_a_at) / RFU HAMP (11756126_x_at) / Fold change /veh HAMP (11756126_x_at) / RFU RNFT2 (11725882_a_at) / Fold change /veh RNFT2 (11725882_a_at) / RFU NR4A2 (11747474_a_at) / Fold change /veh NR4A2 (11747474_a_at) / RFU ABCC12 (11746883_a_at) / Fold change /veh ABCC12 (11746883_a_at) / RFU TMEM136 (11760407_x_at) / Fold change /veh TMEM136 (11760407_x_at) / RFU CLDN22 /// WWC2 (11732394_at) / Fold change /veh CLDN22 /// WWC2 (11732394_at) / RFU HLA-DPB1 (11760878_x_at) / Fold change /veh HLA-DPB1 (11760878_x_at) / RFU SPINT1 (11716480_a_at) / Fold change /veh SPINT1 (11716480_a_at) / RFU GAP43 (11754022_s_at) / Fold change /veh GAP43 (11754022_s_at) / RFU A4GNT (11735810_at) / Fold change /veh A4GNT (11735810_at) / RFU PRB3 (11715151_x_at) / Fold change /veh PRB3 (11715151_x_at) / RFU TUBB4B (11761932_at) / Fold change /veh TUBB4B (11761932_at) / RFU CAPN14 (11732068_a_at) / Fold change /veh CAPN14 (11732068_a_at) / RFU TMCC2 (11721928_a_at) / Fold change /veh TMCC2 (11721928_a_at) / RFU IRGQ (11745062_a_at) / Fold change /veh IRGQ (11745062_a_at) / RFU FAM174B (11720279_a_at) / Fold change /veh FAM174B (11720279_a_at) / RFU TMPRSS4 (11748680_a_at) / Fold change /veh TMPRSS4 (11748680_a_at) / RFU FAM212B (11763350_a_at) / Fold change /veh FAM212B (11763350_a_at) / RFU PLEKHG5 (11743358_a_at) / Fold change /veh PLEKHG5 (11743358_a_at) / RFU ZSCAN30 (11745921_a_at) / Fold change /veh ZSCAN30 (11745921_a_at) / RFU CMKLR1 (11741424_a_at) / Fold change /veh CMKLR1 (11741424_a_at) / RFU LOC101060620 /// MAPK8IP1 (11723275_at) / Fold change /veh LOC101060620 /// MAPK8IP1 (11723275_at) / RFU SPTSSB (11747773_x_at) / Fold change /veh SPTSSB (11747773_x_at) / RFU PRSS12 (11739890_at) / Fold change /veh PRSS12 (11739890_at) / RFU BIN1 (11741810_x_at) / Fold change /veh BIN1 (11741810_x_at) / RFU WNT11 (11732464_a_at) / Fold change /veh WNT11 (11732464_a_at) / RFU C10orf10 (11716521_a_at) / Fold change /veh C10orf10 (11716521_a_at) / RFU C5orf56 (11738089_at) / Fold change /veh C5orf56 (11738089_at) / RFU CYB561 (11721691_x_at) / Fold change /veh CYB561 (11721691_x_at) / RFU ANKRD19P (11752326_a_at) / Fold change /veh ANKRD19P (11752326_a_at) / RFU OR2T12 /// OR2T33 /// OR2T8 (11738714_s_at) / Fold change /veh OR2T12 /// OR2T33 /// OR2T8 (11738714_s_at) / RFU VCAN (11748164_a_at) / Fold change /veh VCAN (11748164_a_at) / RFU JSRP1 (11732532_at) / Fold change /veh JSRP1 (11732532_at) / RFU KRTAP10-11 (11738290_x_at) / Fold change /veh KRTAP10-11 (11738290_x_at) / RFU MYO3A (11730013_a_at) / Fold change /veh MYO3A (11730013_a_at) / RFU EBF3 (11725865_a_at) / Fold change /veh EBF3 (11725865_a_at) / RFU CAMK2N1 (11719241_x_at) / Fold change /veh CAMK2N1 (11719241_x_at) / RFU C5orf56 (11738088_a_at) / Fold change /veh C5orf56 (11738088_a_at) / RFU OLFML3 (11715873_a_at) / Fold change /veh OLFML3 (11715873_a_at) / RFU LOC100653217 /// NTM (11731650_a_at) / Fold change /veh LOC100653217 /// NTM (11731650_a_at) / RFU MAPK11 (11762145_a_at) / Fold change /veh MAPK11 (11762145_a_at) / RFU FIZ1 (11724087_x_at) / Fold change /veh FIZ1 (11724087_x_at) / RFU OASL (11726364_x_at) / Fold change /veh OASL (11726364_x_at) / RFU SOX15 (11748057_x_at) / Fold change /veh SOX15 (11748057_x_at) / RFU CD79A (11719716_a_at) / Fold change /veh CD79A (11719716_a_at) / RFU HIST1H1D (11736915_at) / Fold change /veh HIST1H1D (11736915_at) / RFU CASKIN2 (11723855_a_at) / Fold change /veh CASKIN2 (11723855_a_at) / RFU LOC730098 (11760151_x_at) / Fold change /veh LOC730098 (11760151_x_at) / RFU OR4N2 (11742367_at) / Fold change /veh OR4N2 (11742367_at) / RFU PRRT2 (11749266_a_at) / Fold change /veh PRRT2 (11749266_a_at) / RFU SNX32 (11753110_a_at) / Fold change /veh SNX32 (11753110_a_at) / RFU CDHR5 (11726645_a_at) / Fold change /veh CDHR5 (11726645_a_at) / RFU RCAN1 (11760418_a_at) / Fold change /veh RCAN1 (11760418_a_at) / RFU FAM167A (11723789_a_at) / Fold change /veh FAM167A (11723789_a_at) / RFU FAM26E (11764081_at) / Fold change /veh FAM26E (11764081_at) / RFU ISYNA1 (11749810_s_at) / Fold change /veh ISYNA1 (11749810_s_at) / RFU ACY1 (11761880_at) / Fold change /veh ACY1 (11761880_at) / RFU 11764098_at / Fold change /veh 11764098_at / RFU SAMD14 (11745864_x_at) / Fold change /veh SAMD14 (11745864_x_at) / RFU NPB (11741838_a_at) / Fold change /veh NPB (11741838_a_at) / RFU TMPRSS6 (11731388_a_at) / Fold change /veh TMPRSS6 (11731388_a_at) / RFU KRTAP10-2 (11738614_at) / Fold change /veh KRTAP10-2 (11738614_at) / RFU ARHGAP8 /// PRR5-ARHGAP8 (11727945_x_at) / Fold change /veh ARHGAP8 /// PRR5-ARHGAP8 (11727945_x_at) / RFU KRTAP5-7 /// NADSYN1 (11734609_at) / Fold change /veh KRTAP5-7 /// NADSYN1 (11734609_at) / RFU RASL12 (11751679_a_at) / Fold change /veh RASL12 (11751679_a_at) / RFU CDKN2B (11736163_a_at) / Fold change /veh CDKN2B (11736163_a_at) / RFU PRF1 (11729649_at) / Fold change /veh PRF1 (11729649_at) / RFU, ZNF638 /// ZNF638-IT1 / Fold change vs veh, ZNF638 /// ZNF638-IT1 / RFU, PANK3 / Fold change vs veh, PANK3 / RFU, SH3YL1 / Fold change vs veh, SH3YL1 / RFU, ZEB2 / Fold change vs veh, ZEB2 / RFU, NRIP1 / Fold change vs veh, NRIP1 / RFU, PTTG1IP / Fold change vs veh, PTTG1IP / RFU, CAPN2 / Fold change vs veh, CAPN2 / RFU, MED14 / Fold change vs veh, MED14 / RFU, SNORA58 / Fold change vs veh, SNORA58 / RFU, C1orf63 / Fold change vs veh, C1orf63 / RFU, LRRFIP1 / Fold change vs veh, LRRFIP1 / RFU, NDUFAF7 / Fold change vs veh, NDUFAF7 / RFU, SLC12A2 / Fold change vs veh, SLC12A2 / RFU, IBTK / Fold change vs veh, IBTK / RFU, ESF1 / Fold change vs veh, ESF1 / Fold change vs veh, TMEM50B / RFU, TAOK1 / Fold change vs veh, TAOK1 / RFU, ACBD3 / Fold change vs veh, ACBD3 / RFU, TMA16 / Fold change vs veh, TMA16 / RFU, RWDD3 / Fold change vs veh, RWDD3 / RFU, BCAT1 / Fold change vs veh, BCAT1 / RFU, EDEM3 / Fold change vs veh, EDEM3 / RFU, TMEM33 / Fold change vs veh, TMEM33 / RFU, WDR75 / Fold change vs veh, WDR75 / RFU, AHCTF1 / Fold change vs veh, AHCTF1 / RFU, TFRC / Fold change vs veh, TFRC / RFU, ZDHHC17 / Fold change vs veh, ZDHHC17 / RFU, NOM1 / Fold change vs veh, NOM1 / RFU, ARL8B / Fold change vs veh, ARL8B / RFU, ZBTB11 / Fold change vs veh, ZBTB11 / RFU, TAMM41 / Fold change vs veh, TAMM41 / RFU, KIAA1704 /// LOC100996395 / Fold change vs veh, KIAA1704 /// LOC100996395 / RFU, ING1 / Fold change vs veh, ING1 / RFU, TRMT61B / Fold change vs veh, TRMT61B / RFU, FUBP3 / Fold change vs veh, FUBP3 / RFU, TP53 / Fold change vs veh, TP53 / RFU, TNKS2 / Fold change vs veh, TNKS2 / RFU, ZFP14 / Fold change vs veh, ZFP14 / RFU, ACTR2 / Fold change vs veh, ACTR2 / RFU, PPP3R1 / Fold change vs veh, PPP3R1 / RFU, PIK3R1 / Fold change vs veh, PIK3R1 / RFU, HNRNPA1 / Fold change vs veh, HNRNPA1 / RFU, RNF170 / Fold change vs veh, RNF170 / RFU, ZNF28 / Fold change vs veh, ZNF28 / RFU, RNGTT / Fold change vs veh, RNGTT / RFU, OGT / Fold change vs veh, OGT / RFU, BRD1 / Fold change vs veh, BRD1 / RFU, MARS / Fold change vs veh, MARS / RFU, ZNF655 / Fold change vs veh, ZNF655 / RFU, FAHD1 / Fold change vs veh, FAHD1 / RFU, BDP1 / Fold change vs veh, BDP1 / RFU, LRRCC1 / Fold change vs veh, LRRCC1 / RFU, ARID1A / Fold change vs veh, ARID1A / RFU, ZNF146 / Fold change vs veh, ZNF146 / RFU, ZNF330 / Fold change vs veh, ZNF330 / RFU, GPN3 / Fold change vs veh, GPN3 / RFU, C9orf123 / Fold change vs veh, C9orf123 / RFU, N4BP2L2 / Fold change vs veh, N4BP2L2 / RFU, ARFIP1 / Fold change vs veh, ARFIP1 / RFU, FAM179B / Fold change vs veh, FAM179B / RFU, BCL10 / Fold change vs veh, BCL10 / RFU, UHRF1BP1L / Fold change vs veh, UHRF1BP1L / RFU, BET1 / Fold change vs veh, BET1 / RFU, CNOT2 / Fold change vs veh, CNOT2 / RFU, ZNF268 / Fold change vs veh, ZNF268 / Fold change vs veh, ZNF507 / RFU, DGCR2 / Fold change vs veh, DGCR2 / RFU, WDSUB1 / Fold change vs veh, WDSUB1 / Fold change vs veh, HSP90B1 /// MIR3652 / RFU, ADSS / Fold change vs veh, ADSS / RFU, GK / Fold change vs veh, GK / RFU, ZNF148 / Fold change vs veh, ZNF148 / RFU, TAF9 / Fold change vs veh, TAF9 / RFU, SLC1A5 / Fold change vs veh, SLC1A5 / RFU, SLMO2 / Fold change vs veh, SLMO2 / RFU, ABCC4 / Fold change vs veh, ABCC4 / RFU, LOC101060439 /// RAP1B / Fold change vs veh, LOC101060439 /// RAP1B / RFU, RFX7 / Fold change vs veh, RFX7 / RFU, GTPBP10 / Fold change vs veh, GTPBP10 / RFU, CNEP1R1 / Fold change vs veh, CNEP1R1 / RFU, BIVM-ERCC5 /// ERCC5 / Fold change vs veh, BIVM-ERCC5 /// ERCC5 / RFU, ILF3 / Fold change vs veh, ILF3 / RFU 11762660_at / Fold change /veh 11762660_at / RFU VCAN (11757783_s_at) / Fold change /veh VCAN (11757783_s_at) / RFU DDX43 (11728927_at) / Fold change /veh DDX43 (11728927_at) / RFU KRT8 (11758188_x_at) / Fold change /veh KRT8 (11758188_x_at) / RFU NKD1 (11759106_at) / Fold change /veh NKD1 (11759106_at) / RFU SRD5A1 (11742802_a_at) / Fold change /veh SRD5A1 (11742802_a_at) / RFU TPSAB1 /// TPSB2 (11721975_s_at) / Fold change /veh TPSAB1 /// TPSB2 (11721975_s_at) / RFU GSTM3 (11746129_a_at) / Fold change /veh GSTM3 (11746129_a_at) / RFU IL23R (11737362_x_at) / Fold change /veh IL23R (11737362_x_at) / RFU TMEM51 (11727254_a_at) / Fold change /veh TMEM51 (11727254_a_at) / RFU PIWIL2 (11732686_x_at) / Fold change /veh PIWIL2 (11732686_x_at) / RFU ORM1 (11744905_x_at) / Fold change /veh ORM1 (11744905_x_at) / RFU CCDC152 (11743942_at) / Fold change /veh CCDC152 (11743942_at) / RFU ECM1 (11717891_a_at) / Fold change /veh ECM1 (11717891_a_at) / RFU IL23R (11748794_a_at) / Fold change /veh IL23R (11748794_a_at) / RFU TNFAIP8L3 (11732012_x_at) / Fold change /veh TNFAIP8L3 (11732012_x_at) / RFU MBOAT4 (11741988_at) / Fold change /veh MBOAT4 (11741988_at) / RFU 11764193_at / Fold change /veh 11764193_at / RFU TMEM53 (11763286_at) / Fold change /veh TMEM53 (11763286_at) / RFU MAGEB2 (11727129_at) / Fold change /veh MAGEB2 (11727129_at) / RFU TMEM200A (11744735_a_at) / Fold change /veh TMEM200A (11744735_a_at) / RFU CCDC152 (11751479_a_at) / Fold change /veh CCDC152 (11751479_a_at) / RFU FAM211A (11726209_a_at) / Fold change /veh FAM211A (11726209_a_at) / RFU RGS16 (11746705_a_at) / Fold change /veh RGS16 (11746705_a_at) / RFU VCAN (11755009_s_at) / Fold change /veh VCAN (11755009_s_at) / RFU RHOB (11743442_s_at) / Fold change /veh RHOB (11743442_s_at) / RFU RGS16 (11720943_a_at) / Fold change /veh RGS16 (11720943_a_at) / RFU RGS16 (11720944_at) / Fold change /veh RGS16 (11720944_at) / RFU, VPS4B / Fold change vs veh, VPS4B / RFU, CREB1 / Fold change vs veh, CREB1 / RFU, DNAJC13 / Fold change vs veh, DNAJC13 / RFU, GNAQ / Fold change vs veh, GNAQ / RFU, CDK5R1 / Fold change vs veh, CDK5R1 / RFU, ZRANB3 / Fold change vs veh, ZRANB3 / RFU, CUL4A / Fold change vs veh, CUL4A / RFU, CCNY / Fold change vs veh, CCNY / RFU, UFL1 / Fold change vs veh, UFL1 / RFU, COG3 / Fold change vs veh, COG3 / RFU, DIAPH2 / Fold change vs veh, DIAPH2 / RFU, SKA2 / Fold change vs veh, SKA2 / RFU, AFF3 / Fold change vs veh, AFF3 / RFU, LMF1 / Fold change vs veh, LMF1 / RFU, IPO11 / Fold change vs veh, IPO11 / RFU, DFFB / Fold change vs veh, DFFB / RFU, FOXP1 / Fold change vs veh, FOXP1 / RFU, CARD8 / Fold change vs veh, CARD8 / RFU, STRN3 / Fold change vs veh, STRN3 / RFU, ADK / Fold change vs veh, ADK / RFU, RASSF2 / Fold change vs veh, RASSF2 / RFU, WIPF1 / Fold change vs veh, WIPF1 / RFU, LARP1B / Fold change vs veh, LARP1B / RFU, RASA1 / Fold change vs veh, RASA1 / RFU, RB1 / Fold change vs veh, RB1 / RFU, PPFIA1 / Fold change vs veh, PPFIA1 / RFU, MAT2A / Fold change vs veh, MAT2A / RFU, CCT5 / Fold change vs veh, CCT5 / RFU, WDR92 / Fold change vs veh, WDR92 / RFU, CUX1 / Fold change vs veh, CUX1 / RFU, TTC7A / Fold change vs veh, TTC7A / RFU, TMEM135 / Fold change vs veh, TMEM135 / RFU, DEPTOR / Fold change vs veh, DEPTOR / RFU, CPM / Fold change vs veh, CPM / RFU, DNAJB6 / Fold change vs veh, DNAJB6 / RFU, CACNA2D3 / Fold change vs veh, CACNA2D3 / RFU, DTX4 / Fold change vs veh, DTX4 / RFU, TFCP2 / Fold change vs veh, TFCP2 / RFU, GMCL1 /// GMCL1P1 / Fold change vs veh, GMCL1 /// GMCL1P1 / RFU, AEBP2 / Fold change vs veh, AEBP2 / RFU, SNHG1 /// SNORD22 /// SNORD25 /// SNORD26 /// SNORD27 /// SNORD28 /// SNORD29 /// SNORD31 / Fold change vs veh, SNHG1 /// SNORD22 /// SNORD25 /// SNORD26 /// SNORD27 /// SNORD28 /// SNORD29 /// SNORD31 / Fold change (Aza/veh), C12orf56 (ProbeSet 11735607_a_at) / Fold change (ACY-1035/veh), C12orf56 (ProbeSet 11735607_a_at) / Fold change (Aza/veh), FGFR1OP (ProbeSet 11751329_s_at) / Fold change (ACY-1035/veh), FGFR1OP (ProbeSet 11751329_s_at) / Fold change (Aza/veh), VPS36 (ProbeSet 11739960_a_at) / Fold change (ACY-1035/veh), VPS36 (ProbeSet 11739960_a_at) / RFU SYPL1 (11715823_x_at) / Fold change /veh SYPL1 (11715823_x_at) / RFU IGFBP7 (11715501_s_at) / Fold change /veh IGFBP7 (11715501_s_at) / RFU REEP3 (11722064_at) / Fold change /veh REEP3 (11722064_at) / RFU IGLL1 (11728026_x_at) / Fold change /veh IGLL1 (11728026_x_at): dose or concentration left out as unconfirmed
Conditions: MV-4-11 cells, 48 hours

Question: `Nc1ccc(-c2cccs2)cc1NC(=O)c1ccc2c(c1)cc(C1CC1)n2CCN1CCOCC1` [ACY-1035] was tested. Which “RFU KRT8 (11758183_x_at)” value did it give?
Answer: 18.67 RFU

— article PMC5218480 (PLoS ONE, 2017)
